Where two headings read alike, the source gives them in different places.
Experiments:
Assay type in all cases: cell-based, human
[1] = tested on: Target C mRNA; assay: RT-qPCR splicing assay panel, Target C canonical junction (CJ) mRNA; conditions: Homo sapiens, canonical junction (CJ) mRNA, RT-qPCR panel, Table 4A; read-out: Target C, decrease in CJ mRNA levels, IC50
How it was run: (§1)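 Junction-specific RT-qPCR read the canonical exon-exon junction and the compound-induced alternative-exon junction, normalized to GAPDH, GUSB or PPIA and then to DMSO (2^(-ΔΔCt)). Input was lysate from A673 or K562 cells exposed for 24 h to compound up to 10 uM.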

[2] = tested on: HTT mRNA; assay: RT-qPCR splicing assay, HTT canonical (CJ) and alternative (AJ) junction mRNA; conditions: Homo sapiens; for AC50: read-out: HTT AJ (AC50, increase in AJ mRNA)
How it was run: as §1

[3] = tested on: MYB mRNA; assay: RT-qPCR splicing assay, MYB canonical (CJ) and alternative (AJ) junction mRNA; conditions: Homo sapiens; for AC50: read-out: MYB AJ (AC50, increase in AJ mRNA)
How it was run: as §1

[4] = tested on: SMN2 mRNA; assay: RT-qPCR splicing assay panel, SMN2 canonical junction (CJ) mRNA; conditions: Homo sapiens, canonical junction (CJ) mRNA, RT-qPCR panel, Table 4A; read-out: SMN2, decrease in CJ mRNA levels, IC50
How it was run: as §1

[5] = 24 h, Table 3A, A673 or K562 cells, 24 h treatment
[6] = 24 h, Table 3A, A673 or K562 cells, 24 h treatment, read-out: HTT CJ (IC50, decrease in CJ mRNA)
[7] = canonical junction (CJ) mRNA, RT-qPCR panel, Table 4A, read-out: HTT, decrease in CJ mRNA levels, IC50
[8] = 24 h, Table 3A, A673 or K562 cells, 24 h treatment, read-out: MYB CJ (IC50, decrease in CJ mRNA)
[9] = canonical junction (CJ) mRNA, RT-qPCR panel, Table 4A, read-out: MYB, decrease in CJ mRNA levels, IC50

SMILES	IC50 [1] [nM]	IC50 [2, 6] [nM]	IC50 [2, 7] [nM]	IC50 [3, 8] [nM]	IC50 [3, 9] [nM]	IC50 [4] [nM]	AC50 [2, 5] [nM]	AC50 [3, 5] [nM]
COc1cncc(-c2ccc(-c3ccc(N4CC[C@H](NC5CCC5)C4)nn3)c(O)c2)c1 [Compound 304]	1000 to 10000	1000 to 10000	1000 to 10000	1000 to 10000	1000 to 10000	1000 to 10000	1000 to 10000	1000 to 10000
COc1cc(-c2ccc(-c3ccc(N4CCC(NC5CCC5)C4)nn3)c(O)c2)ccn1 (stereo not drawn) [Compound 305]	1000 to 10000	100 to 1000	100 to 1000	1000 to 10000	1000 to 10000	100 to 1000	100 to 1000	1000 to 10000
Cn1ccc(-c2ccc(-c3ccc(N4CCC(NC5CCC5)C4)nn3)c(O)c2)nc1=O (stereo not drawn) [Compound 306]	1000 to 10000	1000 to 10000	1000 to 10000	1000 to 10000	1000 to 10000	100 to 1000	1000 to 10000	1000 to 10000
COc1cc(-c2ccc(-c3ccc(N4CCC(NC5CCC5)C4)nn3)c(O)c2)c(F)cn1 (stereo not drawn) [Compound 307]	> 10000	1000 to 10000	1000 to 10000	> 10000	> 10000	1000 to 10000	1000 to 10000	> 10000
COc1cc(-c2ccc(-c3ccc(N4CC[C@@H](N(CCF)C5CCC5)C4)nn3)c(O)c2)cnn1 [Compound 313, 2-{6-[(3R)-3-[cyclobutyl(2-fluoroethyl)amino]pyrrolidin-1-yl]pyridazin-3-yl}-5-(6-methoxypyridazin-4-yl)phenol]	> 10000	100 to 1000	100 to 1000	> 10000	> 10000	100 to 1000	1000 to 10000	1000 to 10000
Oc1cc(-n2cnnc2)c(F)cc1-c1ccc(N2CCC(NC3CCC3)C2)nn1 (stereo not drawn) [Compound 315]	> 10000	1000 to 10000	1000 to 10000	> 10000	> 10000	1000 to 10000	1000 to 10000	> 10000
Cn1cc2nc(-c3ccc(-c4ccc(N5CCC(NC6CCC6)C5)nn4)c(O)c3)ccc2n1 (stereo not drawn) [Compound 319]	1000 to 10000	100 to 1000	100 to 1000	1000 to 10000	1000 to 10000	100 to 1000	100 to 1000	100 to 1000
Cn1cc2cc(-c3ccc(-c4ccc(N5CCC(NC6CCC6)C5)nn4)c(O)c3)ncc2n1 (stereo not drawn) [Compound 320]	100 to 1000	100 to 1000	100 to 1000	100 to 1000	100 to 1000	< 100	100 to 1000	100 to 1000
COc1cc(-c2cc(O)c(-c3cnc(N4CC[C@H](NC5CCC5)C4)nn3)cc2F)cnn1 [Compound 321, 2-{3-[(3S)-3-(cyclobutylamino)pyrrolidin-1-yl]-1,2,4-triazin-6-yl}-4-fluoro-5-(6-methoxypyridazin-4-yl)phenol]	100 to 1000	100 to 1000	100 to 1000	1000 to 10000	1000 to 10000	100 to 1000	100 to 1000	1000 to 10000
Cc1ccc(-c2ccc(-c3ccc(N4CCC(NC5CCC5)C4)nn3)c(O)c2)o1 (stereo not drawn) [Compound 325, 2-{6-[3-(cyclobutylamino)pyrrolidin-1-yl]pyridazin-3-yl}-5-(5-methylfuran-2-yl)phenol]	1000 to 10000	1000 to 10000	1000 to 10000	1000 to 10000	1000 to 10000	1000 to 10000	1000 to 10000	1000 to 10000
Cc1nc2c(F)cc(-c3ccc(-c4ccc(N5CCC(NC6CCC6)C5)nn4)c(O)c3)cc2o1 (stereo not drawn) [Compound 326]	100 to 1000	< 100	< 100	100 to 1000	100 to 1000	< 100	100 to 1000	100 to 1000
Cc1cn2cc(-c3ccc(-c4ccc(N5CCC(NC6CCC6)C5)nn4)c(O)c3)ncc2n1 (stereo not drawn) [Compound 327]	1000 to 10000	100 to 1000	100 to 1000	1000 to 10000	1000 to 10000	< 100	100 to 1000	100 to 1000
Cn1cc2cc(-c3ccc(-c4ccc(N5CCC(NC6CCC6)C5)nn4)c(O)c3)cc(F)c2n1 (stereo not drawn) [Compound 328]	100 to 1000	< 100	< 100	100 to 1000	100 to 1000	< 100	< 100	100 to 1000
Cc1ncc(-c2cc(O)c(-c3ccc(N4CCC(CNC(C)(C)C)C4)nn3)cc2F)s1 (stereo not drawn) [Compound 333]	> 10000	1000 to 10000	1000 to 10000	> 10000	> 10000	1000 to 10000	> 10000	> 10000
COc1cc(-c2ccc(-c3ccc(N4CCC(NC5CC(F)(F)C5)C4)nn3)c(O)c2)cnn1 (stereo not drawn) [Compound 334, 2-(6-(3-((3,3-difluorocyclobutyl)amino)pyrrolidin-1-yl)pyridazin-3-yl)-5-(6-methoxypyridazin-4-yl)phenol]	100 to 1000	< 100	< 100	100 to 1000	100 to 1000	100 to 1000	100 to 1000	1000 to 10000
COc1cc(-c2ccc(-c3ccc(N4CCC(NC56CC(C5)C6)C4)nn3)c(O)c2)cnn1 (stereo not drawn) [Compound 335, 2-[6-(3-{bicyclo[1.1.1]pentan-1-ylamino}pyrrolidin-1-yl)pyridazin-3-yl]-5-(6-methoxypyridazin-4-yl)phenol]	100 to 1000	< 100	< 100	100 to 1000	100 to 1000	100 to 1000	100 to 1000	1000 to 10000

Continued, in another order:

IC50 [1] [nM]	IC50 [2, 6] [nM]	IC50 [2, 7] [nM]	IC50 [3, 8] [nM]	IC50 [3, 9] [nM]	IC50 [4] [nM]	SMILES	AC50 [2, 5] [nM]	AC50 [3, 5] [nM]
100 to 1000	< 100	< 100	100 to 1000	100 to 1000	< 100	COc1cc(-c2cc(O)c(-c3ccc(N4CCC(C)(NC5CCC5)C4)nn3)cc2F)cnn1 (stereo not drawn) [Compound 310, 2-{6-[3-(cyclobutylamino)-3-methylpyrrolidin-1-yl]pyridazin-3-yl}-4-fluoro-5-(6-methoxypyridazin-4-yl)phenol]	100 to 1000	100 to 1000
100 to 1000	< 100	< 100	1000 to 10000	1000 to 10000	< 100	CN(C1CCC1)[C@@H]1CCN(c2ccc(-c3cc(F)c(-c4cn[nH]c4)cc3O)nn2)C1 [Compound 314, 2-{6-[(3R)-3-[cyclobutyl(methyl)amino]pyrrolidin-1-yl]pyridazin-3-yl}-4-fluoro-5-(1H-pyrazol-4-yl)phenol]	100 to 1000	100 to 1000
100 to 1000	100 to 1000	100 to 1000	1000 to 10000	1000 to 10000	100 to 1000	Cc1nc2ccc(-c3ccc(-c4ccc(N5CCC(NC6CCC6)C5)nn4)c(O)c3)cc2o1 (stereo not drawn) [Compound 316]	100 to 1000	100 to 1000
100 to 1000	< 100	< 100	100 to 1000	100 to 1000	100 to 1000	Cc1cn2nc(-c3ccc(-c4ccc(N5CCC(NC6CCC6)C5)nn4)c(O)c3)cc(C)c2n1 (stereo not drawn) [Compound 317]	100 to 1000	100 to 1000
100 to 1000	100 to 1000	100 to 1000	1000 to 10000	1000 to 10000	100 to 1000	Cc1cc(-c2ccc(-c3ccc(N4CCC(NC5CCC5)C4)nn3)c(O)c2)cc2cn(C)nc12 (stereo not drawn) [Compound 318]	100 to 1000	> 10000
< 100	< 100	< 100	< 100	< 100	< 100	Cc1ncc(-c2cc(O)c(-c3ccc(N4CC[C@H](N(C)C(C)(C)C)C4)nn3)cc2F)s1 [Compound 322, 2-{6-[(3S)-3-[tert-butyl(methyl)amino]pyrrolidin-1-yl]pyridazin-3-yl}-4-fluoro-5-(2-methyl-1,3-thiazol-5-yl) phenol]	< 100	< 100
< 100	< 100	< 100	100 to 1000	100 to 1000	< 100	Cc1ncc(-c2ccc(-c3ccc(OC4CC(C)(C)NC(C)(C)C4)nn3)c(O)c2)s1 [Compound 329]	< 100	100 to 1000
< 100	< 100	< 100	< 100	< 100	< 100	COc1cc(-c2ccc(-c3ccc(N4CC[C@@H](N(C)C(C)(C)C)C4)nn3)c(O)c2)cnn1 [Compound 336, 2-{6-[(3R)-3-[tert-butyl(methyl)amino]pyrrolidin-1-yl]pyridazin-3-yl}-5-(6-methoxypyridazin-4-yl)phenol]	< 100	< 100

— US20250333397A1 (REMIX THERAPEUTICS INC., priority 2021, published 2025)
